Test results as given in US20170298056A1, “SMALL MOLECULE INHIBITORS OF HIV-1 ENTRY AND METHODS OF USE THEREOF” (Dana-Farber Cancer Institute, Inc., priority 2014, published 2017).

Experiments:
HIV-1KB9 = experiment: Viral infection assay, dual-tropic isolate; format: cell-based; details: dual-tropic HIV-1KB9
Method: Production of recombinant HIV-1 expressing luciferase. 293T cells were cotransfected with an Env expression plasmid, a firefly luciferase-expressing lentiviral vector (pHIVcc2.luc) and an HIV-1-based packaging plasmid (psPAX2, cat #11348, NIH AIDS Research and Reference Reagent Program) at a ratio of 1:6:3 using Effectene (Qiagen, Germantown, Md.). After 48 hours, the supernatant was collected, buffered with 50 mM Hepes pH 7.4 (final concentration) and centrifuged for 5 minutes at 750×g and 4° C. The virus-containing supernatant was used directly or frozen at −80° C.
Viral infection assay. Each test compound was serially diluted in DMSO in a 96-well B&W isoplate (PerkinElmer, Boston, Mass.) using an HP D300 Digital Dispenser, to a final volume of 450 nl. DMSO was used as a control. Viruses pseudotyped with a specific Env were added to each well and incubated briefly at room temperature. […] The activity of the firefly luciferase, which was used as a reporter protein in the system, was measured with a Centro LB 960 luminometer (Berthold Technologies, Oak Ridge, Tenn.). One hundred microliters of assay buffer (15 mM MgSO4, 15 mM KH2PO4/K2HPO4 pH 7.8, 1 mM ATP and 1 mM DTT) was injected to each well, followed by a 50 μl injection of 1 mM Dluciferin potassium salt (BD Pharmingen, San Jose, Calif.); luminescence was measured for 2 sec. […]

[1] = test system: cell-surface HIV-1JR-FL WTKA Env; experiment: Binding of 17b, 19b, 2G12, PGT121 antibodies to cell-surface Env (flow cytometry)
Method: Flow cytometry. […] After 48-72 hours, cells were detached with 5 mM EDTA/PBS and between 0.5-1 million cells were briefly incubated with various concentrations of 18A and then with or without the indicated concentrations of sCD4. C34-Ig (at a final concentration of 20 μg/ml) or a specified antibody (at final concentration of 1 μg/ml) was added to the cells. […] Cells were washed twice and analyzed with a BD FACSCanto II flow cytometer (BD Biosciences). For analysis of resistant mutants (FIG. 5e-g), the measurements were normalized for the level of sCD4 binding of each mutant, and the response of each mutant was further normalized to that of the wild-type HIV-1JR-FL E168K+N188AΔCT Env (herein designated WTKA). […] The sCD4 IC50/sCD4 binding ratio (FIGS. 4c and e) was calculated as follows. Binding of sCD4 to different envelope mutants was measured by flow cytometry and normalized first to 2G12 binding to account for potentially different Env expression levels, and then to sCD4 binding to the wild-type HIV-1JR-FL Env. The IC50 of sCD4 for inhibition of virus infection by each mutant Env was divided by the normalized sCD4 binding to Env-expressing cells to calculate the sCD4 IC50/sCD4 binding value.

Question: Which results are given for O=C(N/N=C/c1ccc(O)cc1)Nc1cccc2nsnc12 [Compound 18A]?
Answer: inhibition of infection (HIV-1KB9): relatively resistant to inhibition; binding of 19b and 2G12, sCD4-induced decrease of PGT121 binding [1]: No significant effect; 17b binding to cell surface-expressed Env trimer ([1]; in the presence of 18A, no sCD4): reduction in 17b binding
